From US20100021524A1 (OsteoGeneX Inc., priority 2008, published 2010) come the findings set out here.

One assay has as its system Wnt pathway. Put plainly: Modulation of the Wnt pathway to promote bone growth (FIG. 1). Conditions: doses of 2.5 ng (low), 125 ng (high) and 1250 ng (very high). The method, then: For example, the mouse test animal is treated with a predetermined dose of a SOST antagonist candidate for a complete dosing schedule. A control mouse is treated with a control solution, preferably a non-irritating buffer solution or other carrier. Once the dosing schedule has been completed, both test and control animals are examined with sacrifice using micro-CT to determine the quantity of bone formation present.

The test system of the next assay is C57BL/6 mice. Put plainly: Bone growth with pimethixene: 30-day daily i.p. treatment, serum osteocalcin (EIA Elisa) and trabecular bone volume (micro-CT). Conditions: four month old male C57BL/6 mice, daily i.p. for 30 days, FIG. 2. The assay is classed as in vivo, mouse. The method, then:
Four month old male C57BL/6 mice were treated daily with saline vehicle or the sclerostin inhibitor of pimethixene at several doses (via i.p) for 30 days. Study endpoints included a biochemical marker of bone formation; osteocalcin, measured by EIA Elisa, and measurement of trabecular bone volume by mico-CT analysis on the proximal tibia and spine (lumbar 5).

Another assay has as its system mouse. Put plainly: Mouse bone formation assay for SOST antagonist candidates, examined by micro-CT. The assay is classed as in vivo. As to conditions: complete dosing schedule, versus control solution. The text has this:
Compounds useful in the methods of the present invention can be identified via a variety of methods known to one of skill in the art. Several exemplary methods for identifying such antagonists are described herein, including cell-based and in vitro techniques (Journal of Bone and Mineral Research 2006, 21(11), 1738-1749). A general method of identifying SOST antagonists involves evaluating the effects of antagonist candidates on bone formation under controlled conditions. Preferably bone formation is determined using micro-CT techniques on live animals. Preferred animals include rodents, more preferred are primates. Femur, tibia and vertebrae bones are particularly useful subjects for such study.
Briefly, the test animal is treated with a predetermined dose of a SOST antagonist candidate. […]
Once the dosing schedule has been completed, both test and control animals are examined to determine the quantity of bone formation present. […] Where necessary, levels of bone formation can be calculated by determining the volume of bone formation present in each animal. […]
For example, the mouse test animal is treated with a predetermined dose of a SOST antagonist candidate for a complete dosing schedule. […] Once the dosing schedule has been completed, both test and control animals are examined with sacrifice using micro-CT to determine the quantity of bone formation present.

Counter-ions that a name gives are not always drawn.

Turning to `CN1CCC(=C2c3ccccc3Sc3ccccc32)CC1` [pimethixene maleate], the “modulating the Wnt pathway to promote bone growth” value in the assay with Wnt pathway was “modulating the Wnt pathway to promote bone growth”. For the same compound, the “increase in bone volume for lumbar 5 over baseline controls, μ-CT analysis” value in the assay on C57BL/6 mice (dosed at 0.01 mg/kg, 0.1 mg/kg or 10 mg/kg) is “greater than 30%”. In addition, the “percent increase in serum osteocalcin bone formation marker over saline controls” value in the assay on C57BL/6 mice (dosed between 10 mg/kg and 0.1 mg/kg) is 25%.
Consider `CN1CCC(=C2c3ccccc3Sc3ccccc32)CC1` [pimethixene], for which, in the assay on mouse, the “bone growth (quantity of bone formation present, micro-CT)” value is “promoting bone growth”.
